The target of assay [1] is T1, recombinant human arginase 1 (Homo sapiens, UniProt P05089).
T1 sequence (P05089 1-322): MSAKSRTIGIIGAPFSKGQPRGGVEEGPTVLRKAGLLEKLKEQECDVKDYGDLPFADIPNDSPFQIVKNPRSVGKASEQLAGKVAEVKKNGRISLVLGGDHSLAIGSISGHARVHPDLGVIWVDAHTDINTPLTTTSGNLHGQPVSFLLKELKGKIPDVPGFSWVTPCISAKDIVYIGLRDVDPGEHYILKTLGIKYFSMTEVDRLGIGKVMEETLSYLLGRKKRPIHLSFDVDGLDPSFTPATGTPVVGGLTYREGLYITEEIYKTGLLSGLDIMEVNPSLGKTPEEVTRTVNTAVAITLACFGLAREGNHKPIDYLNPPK
In words: Arginase 1 activity assay, kinetics of ARG conversion to ORN. Format: biochemical. Particulars: for Vmax (nmol·min^−1·mg^−1) ± SE / Km: conversion of ARG to ORN.
Description: Incubation mixtures contained HEK293T cell lysate expressing recombinant human arginase 1 (0.05 mg/mL) or arginase 2 (0.1 mg/mL), phosphate buffer (0.05 M, pH 7.4) and ARG (0 to 15 mM).
(§1) Following a 5-min pre-equilibration period reactions were initiated by the addition of the cell lysate solution in 0.05 M phosphate buffer to a pre-equilibrated aqueous solution of the substrate (ARG).
(§2) The samples were vortex mixed (20 sec) and cooled in an ice/water bath for 10 min prior to centrifugation (5 min, 18,000 × g, room temperature) to precipitate the proteins. An aliquot of the supernatant layer was diluted with a 7:3 mobile phase A/mobile phase B solution into glass UPLC vial inserts.
Kinetic data are the mean of three singlicate experiments.

Assay [2] concerns the target T2, recombinant human arginase 2 (Homo sapiens, UniProt P78540).
T2 sequence (P78540 23-354): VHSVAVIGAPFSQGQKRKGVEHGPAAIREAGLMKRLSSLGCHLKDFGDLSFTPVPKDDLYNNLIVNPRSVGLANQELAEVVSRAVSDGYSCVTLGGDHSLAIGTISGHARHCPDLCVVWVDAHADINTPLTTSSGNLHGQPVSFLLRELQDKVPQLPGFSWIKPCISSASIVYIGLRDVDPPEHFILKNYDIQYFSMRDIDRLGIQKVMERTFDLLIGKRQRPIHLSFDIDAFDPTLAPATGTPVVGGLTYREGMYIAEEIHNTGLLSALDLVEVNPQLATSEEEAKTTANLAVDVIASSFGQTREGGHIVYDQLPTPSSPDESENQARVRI
The assay can be described thus: Arginase 2 activity assay, kinetics of ARG conversion to ORN. Format: biochemical.

Assay [3] relates to arginase 1. Particulars: arginase 1; range previously reported; cited from earlier work.
Assay [4] has as its system arginase 2. Particulars: cited from earlier work.
Assay [5] has as its target T1, recombinant human arginase 1. The assay can be described thus: Arginase 1 inhibition, UPLC-MS measurement of ARG to ORN conversion in HEK293T cell lysate.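 On all read-outs here: arginase 1–expressing HEK293T lysate at 0.05 mg/mL in pH 7.4 phosphate buffer, inhibitor preincubated 5 min with enzyme, then reaction started by adding ARG.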 The following applies: for remaining activity at 1 µM / remaining activity at 10 µM / remaining activity at 100 µM / remaining activity at 1000 µM / remaining activity at 10000 µM: read-out: % of control activity at the corresponding [Inhibitor] ± SE, arginase 1; for remaining activity at 1 µM / remaining activity at 10 µM / remaining activity at 100 µM / remaining activity at 1000 µM / remaining activity at 10000 µM / % of control activity at the corresponding [Inhibitor] ± SE: mean of two experiments; for remaining activity at 10000 µM: inhibitor 10,000 µM; for inhibition at 1000 µM: inhibitor 1 mM; for inhibition at 10000 µM: inhibitor 10 mM.
Description: as §1, §2
(§3) Incubation mixtures comprised of HEK293T cell lysate expressing arginase 1 (0.05 mg/mL) or arginase 2 (0.1 mg/mL), phosphate buffer (0.05 M, pH 7.4), inhibitor (0, 0.1, 1, 10, 100, 1000 or 10000 μM) and ARG (0.1, 2 or 3 mM). Following a 5-min pre-incubation of the potential inhibitor with arginase 1 or arginase 2, reactions were initiated by the addition of a pre-equilibrated solution of the substrate ARG.
Ki values were derived from fitting the competitive inhibition equation to experimental data. Ki data are the mean of three singlicate experiments.

The target in assay [6] is T2, recombinant human arginase 2. In words: Arginase 2 inhibition, UPLC-MS measurement of ARG to ORN conversion in HEK293T cell lysate.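 On all read-outs here: HEK293T lysate carrying arginase 2 at 0.1 mg/mL in 0.05 M phosphate buffer pH 7.4, inhibitor preincubated with enzyme 5 min before ARG addition started the reaction.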 The following applies: for remaining activity at 1 µM / remaining activity at 10 µM / remaining activity at 100 µM / remaining activity at 1000 µM / remaining activity at 10000 µM: read-out: % of control activity at the corresponding [Inhibitor] ± SE, arginase 2; for remaining activity at 1 µM / remaining activity at 10 µM / remaining activity at 100 µM / remaining activity at 1000 µM / remaining activity at 10000 µM / % of control activity at the corresponding [Inhibitor] ± SE: mean of two experiments; for remaining activity at 10000 µM: inhibitor 10,000 µM; for inhibition at 1000 µM: inhibitor 1 mM; for inhibition at 10000 µM: inhibitor 10 mM.
Description: as §1, §2, §3
Sample were diluted 3:17 in mobile phase solution prior injection.

The mark [7] stands for this setting: read-out: inhibition of arginase 1 activity, ARG 100 µM (physiological).
The mark [8] stands for this setting: read-out: inhibition of arginase 1 activity, ARG 3 mM (Km).
The mark [9] stands for this setting: read-out: inhibition of arginase 2, ARG 100 µM.
Where [10] appears, read: read-out: inhibition of arginase 2, ARG 2 mM.

Where “and” joins values, the source holds several entries; their conditions need not be identical. Identical values can stand only once. Counter-ions that a name gives are not always drawn. Like-named read-outs stand apart in the source and are kept apart here.

On to `N=C(N)NCCC[C@H](N)C(=O)O` [ARG, arginine], for which the “Vmax (nmol·min^−1·mg^−1) ± SE” value amounted to 37 ± 1 nmol/min/mg in assay [1] (Expt 1), 32 ± 1 nmol/min/mg in assay [1] (Expt 2), 35 ± 1 nmol/min/mg in assay [1] (Expt 3) and 34 ± 1 nmol/min/mg in assay [1] (Mean). The Km amounted to 3.4 ± 0.4 mM in assay [1] (Expt 1, read-out: Km (mM) ± SE); 3.8 ± 0.2 mM in assay [1] (Expt 2, read-out: Km (mM) ± SE); 3.5 ± 0.2 mM in assay [1] (Expt 3, read-out: Km (mM) ± SE); 2.4 ± 0.1 mM in assay [2] (Expt 1, read-out: Km (mM) ± SE); 1.7 ± 0.1 mM in assay [2] (Expt 2, read-out: Km (mM) ± SE); 1.8 ± 0.1 mM in assay [2] (Expt 3, read-out: Km (mM) ± SE). Moreover, the Km in assay [2] (Mean, read-out: Km (mM) ± SE) is 1.9 ± 0.1 mM; in assay [3] it was 1000 to 9000 µM; in assay [4] (arginase 2, range previously reported), 1000 to 7000 µM. In addition, the “Vmax (pmol·min^−1·mg^−1) ± SE” value in assay [2] (Expt 1) is 984 ± 8 pmol/min/mg; in assay [2] (Expt 2), 837 ± 12 pmol/min/mg; in assay [2] (Expt 3), 834 ± 5 pmol/min/mg; in assay [2] (Mean), 883 ± 16 pmol/min/mg.
Consider `NCCCC[C@H](N)C(=O)O` [LYS, lysine], for which the Ki in assay [4] (arginase 2 inhibition, ref Colleluori et al. 15) is 7000 µM; in assay [6] it was 500 ± 30 µM. The “inhibitory effect on arginase 1 activity at physiological inhibitor concentrations” value in assay [5] (LYS 100–1000 µM, HOMOARG 1–10 µM) was “no significant inhibitory effects”. The “inhibition model fitting the data” value in assay [5] (arginase 1, poorly fit by uncompetitive, noncompetitive and mixed models) is on record as “competitive”; in assay [6] (arginase 2, poorly fit by uncompetitive, noncompetitive and mixed models), “competitive”. The remaining activity at 1 µM came to 88 ± 21% in assay [5] (ARG 100 µM, inhibitor 1 µM); 108 ± 13% in assay [5] (ARG 3 mM, inhibitor 1 µM); 92 ± 6% in assay [6] (ARG 100 µM, inhibitor 1 µM); 88 ± 6% in assay [6] (ARG 2 mM, inhibitor 1 µM). In addition, the remaining activity at 10 µM is 89 ± 10% in assay [5] (ARG 100 µM, inhibitor 10 µM); 103 ± 10% in assay [5] (ARG 3 mM, inhibitor 10 µM); 97 ± 5% in assay [6] (ARG 100 µM, inhibitor 10 µM); 82 ± 6% in assay [6] (ARG 2 mM, inhibitor 10 µM). For the same compound, the remaining activity at 100 µM worked out at 105 ± 18% in assay [5] (ARG 100 µM, inhibitor 100 µM); 82 ± 4% in assay [5] (ARG 3 mM, inhibitor 100 µM); 78 ± 11% in assay [6] (ARG 100 µM, inhibitor 100 µM); 84 ± 5% in assay [6] (ARG 2 mM, inhibitor 100 µM). Further, the remaining activity at 1000 µM is 56 ± 5% in assay [5] (ARG 100 µM, inhibitor 1,000 µM); 63 ± 8% in assay [5] (ARG 3 mM, inhibitor 1,000 µM); 56 ± 14% in assay [6] (ARG 100 µM, inhibitor 1,000 µM); 58 ± 1% in assay [6] (ARG 2 mM, inhibitor 1,000 µM). The remaining activity at 10000 µM in assay [5] (ARG 100 µM) is 19 ± 1%; in assay [5] (ARG 3 mM), 22 ± 1%; in assay [6] (ARG 100 µM), 12 ± 4%; in assay [6] (ARG 2 mM), 33 ± 4%. The inhibition at 1000 µM came out at 44% in assay [5] (setting [7]), 39% in assay [5] (setting [8]), 44% in assay [6] (setting [9]) and 42% in assay [6] (setting [10]). For the same compound, the inhibition at 10000 µM in assay [5] (setting [7]) was 81%; in assay [5] (setting [8]), 78%; in assay [6] (setting [9]), 88%; in assay [6] (setting [10]), 67%. Further, in assay [6] (IC50 ( ± SE), arginase 2, ARG 2 mM), the IC50 was 900 µM and 880 µM. The “inhibition of arginase 2 at physiological inhibitor concentrations” value in assay [6] (physiological LYS and HOMOARG concentrations) is reported as “no significant inhibition”.
For `CN=C(NC)NCCC[C@H](N)C(=O)O` [SDMA, NG, N′G-dimethyl-L-arginine dihydrochloride], the “% of control activity at the corresponding [Inhibitor] ± SE” value (“% of control activity … [Inhibitor] ± SE” for short) worked out at 96 ± 3% in assay [5] (arginase 1, ARG 100 µM, inhibitor 0.1 µM); 113 ± 22% in assay [5] (arginase 1, ARG 100 µM, inhibitor 1 µM); 104 ± 4% in assay [5] (arginase 1, ARG 100 µM, inhibitor 10 µM); 106 ± 17% in assay [5] (arginase 1, ARG 100 µM, inhibitor 100 µM); 69 ± 10% in assay [5] (arginase 1, ARG 100 µM, inhibitor 1,000 µM); 113 ± 16% in assay [5] (arginase 1, ARG 3 mM, inhibitor 0.1 µM). For the same compound, the “% of control activity … [Inhibitor] ± SE” value in assay [5] (arginase 1, ARG 3 mM, inhibitor 1 µM) is on record as 93 ± 5%; in assay [5] (arginase 1, ARG 3 mM, inhibitor 10 µM), 92 ± 2%; in assay [5] (arginase 1, ARG 3 mM, inhibitor 100 µM) it was 84 ± 1%; in assay [5] (arginase 1, ARG 3 mM, inhibitor 1,000 µM), 73 ± 5%; in assay [6] (arginase 2, ARG 100 µM, inhibitor 0.1 µM), 90 ± 2%; in assay [6] (arginase 2, ARG 100 µM, inhibitor 1 µM), 96 ± 1%. For the same compound, the “% of control activity … [Inhibitor] ± SE” value came out at 95 ± 3% in assay [6] (arginase 2, ARG 100 µM, inhibitor 10 µM); 90 ± 1% in assay [6] (arginase 2, ARG 100 µM, inhibitor 100 µM); 89 ± 1% in assay [6] (arginase 2, ARG 100 µM, inhibitor 1,000 µM); 96 ± 2% in assay [6] (arginase 2, ARG 2 mM, inhibitor 0.1 µM); 100 ± 3% in assay [6] (arginase 2, ARG 2 mM, inhibitor 1 µM); 107 ± 1% in assay [6] (arginase 2, ARG 2 mM, inhibitor 10 µM). Also, the “% of control activity … [Inhibitor] ± SE” value turned out to be 102 ± 1% in assay [6] (arginase 2, ARG 2 mM, inhibitor 100 µM) and 96 ± 1% in assay [6] (arginase 2, ARG 2 mM, inhibitor 1,000 µM). Besides, in assay [5] (at the concentrations tested, both ARG concentrations), the “arginase 1 inhibitor assessment in words” value is recorded as “poor arginase 1 inhibitors”. The “arginase 2 inhibitor assessment in words” value in assay [6] (at the concentrations tested) was “poor arginase inhibitors”.
Consider `[Cl][Mn][Cl]` [manganese chloride], for which, in assay [1] (absence vs 0.5 mM manganese chloride), the “rate of ORN formation higher in absence of manganese supplementation” value was determined as 20%.

As usually defined, the Km is the substrate concentration at which the rate is half of its maximum. By Ki is commonly meant the equilibrium dissociation constant of an inhibitor or competing ligand from its target. By inhibition is commonly meant the percentage by which the read-out fell short of the control. Usually IC50 stands for the concentration that inhibits the measured activity by half.

Values taken from PMC5829263, “Homoarginine and inhibition of human arginase activity: kinetic characterization and biological relevance” (Scientific Reports, 2018).
